MIC data for three sequences are collected here from article PMC5057115, “Cathelicidins in the Tasmanian devil (Sarcophilus harrisii)” (Scientific Reports, 2016).

Where no end group is shown, it is not given here.

One test deals with E. coli. In kind it is cell-based, Escherichia coli. The conditions noted are these: broth microdilution (CLSI), 64 to 0.125 μg/mL, 24 h at 35 °C; human clinical isolate. The method, then: (§1) Tissue expression of devil cathelicidin prepropeptides was determined by real-time PCR on a range of secretory, immune, reproductive, gastrointestinal and respiratory tissues, as well as BLAST searches of the milk transcriptome. Opportunistic tissue samples for real-time PCR were collected from Taronga Zoo (Sydney) from devils which were subject to euthanasia due to old age and advanced disease. The mature peptides of all six devil cathelicidins were synthesised by ChinaPeptides Co. Ltd. and their antimicrobial activity against bacterial and fungal pathogens determined by broth microdilution susceptibility assay according to clinical laboratory standards institute guidelines. Antimicrobial activity was expressed as minimum inhibitory concentration (MIC). Cytotoxicity was assessed in the human cell line A549 and haemolytic activity determined against human blood. Statistical significance of peptide effect on cell survival in comparison to the untreated control was calculated using a one sample t-test. […]
(§2) Two antibiotics, ampicillin and tetracycline, were included as a positive control for bacteria, and the antifungal drug fluconazole for fungi. […] Colonies were resuspended in saline and the OD530 measured with a McFarland reader. […] Assays Antimicrobial activity was expressed as minimum inhibitory concentration (MIC), which was defined as the lowest concentration of cathelicidin preventing visible growth, relative to the negative control. […]
(§3) DMEM and positive control of dimethylsulfoxide (DMSO) (1%) were also included. Following incubation for a further 24 hours, cell viability was determined using alamar blue (Invitrogen) which was added to each well. The plates were incubated for 24 hours, then the absorption measured at 570nm and 620nm using the Victor 3 multilabel plate reader (PerkinElmer). […] To x i city of cathelicidins was calculated according to Invitrogen recommendations and expressed as percentage cell survival compared to the untreated growth control. […]
(§4) Haemolytic activity was assessed using 10mL of human blood collected into potassium -ED T A […]
(In general: Broth dilution looks for growth in wells or tubes with falling amounts of substance.)

A further test concerns P. multocida*. Type of test: cell-based, Pasteurella multocida. The conditions noted are these: broth microdilution (CLSI), 64 to 0.125 μg/mL, 24 h at 35 °C with 5% CO2; animal isolate. The method, then: as §1, §2, §3, §4
The test system of a further test is E. faecalis. In kind it is cell-based, Enterococcus faecalis. The settings on record: broth microdilution (CLSI), 64 to 0.125 μg/mL, 24 h at 35 °C; human clinical isolate. The method, then:
as §1, with “t-test. Pouch microbiome analysis was performed on swabs from the pouch of lactating and non-lactating devils to detect changes in microbe populations. Pouch swab collection was carried out in accordance with the Save the Tasmanian Devil Program and was approved by the Animal Ethics Committee of the University of Sydney (permit number 681).” for “t-test.”
(§5) base (YNB) for fungi, from a concentration of 64μg/mL to 0.125μg/mL in a final volume of 100 μL .
(§6) Two antibiotics, ampicillin and tetracycline, were included as a positive control for bacteria, and the antifungal drug fluconazole for fungi. A well containing cells and media only was used as a “no drug” control to ensure that cultures grew normally. Bacteria were subcultured on Mueller Hinton agar (MHA) or Sheep blood agar (BA) for 24 hours at 35 °C for Staphylococcus spp., Pseudomonas spp., Enterococcus spp. and E.coli, with 5% CO2 for Streptococcus spp., K.pneumoniae, P.multocida, L.monocytogenes and N.asteroides. Similarly, fungi were subcultured on Sabouraud agar (SAB) at 35 °C for 24 hours prior to the test. Colonies were resuspended in saline and the OD530 measured with a McFarland reader. If necessary the suspension was diluted to 0.45-0.55 McFarland units with saline. Following a 1:150 dilution for bacteria and twostep dilution for fungi (1:50, 1:20), 100 μL of microorganisms (1x106 – 5 x10^5 cells/mL) were pipetted into wells 2-12, the first well acting as a negative control. Colony counts were performed using a 1:1000 dilution for bacteria and 1:10 for fungi spread onto MHA/BA or SAB plates respectively. The 96 well microdilution and agar plates were incubated for 24 hours at 35 °C (Escherichia coli, Staphylococcus spp., Enterococcus spp. and Pseudomonas spp.), with 5% CO2 (Streptococcus spp. Pasteurella multocida, Klebsiella pneumoniae, Listeria monocytogenes a nd Nocardia asteroids) for bacteria, and 35 °C for 48 hours (Candida spp .) or 72 hours (Cryptococcus spp.) for fungi. Assays Antimicrobial activity was expressed as minimum inhibitory concentration (MIC), which was defined as the lowest concentration of cathelicidin preventing visible growth, relative to the negative control. […]
(§7) DMEM and positive control of dimethylsulfoxide (DMSO) (1%) were also included. Following incubation for a further 24 hours, cell viability was determined using alamar blue (Invitrogen) which was added to each well. The plates were incubated for 24 hours, then the absorption measured at 570nm and 620nm using the Victor 3 multilabel plate reader (PerkinElmer). The assay was performed on two separate occasions. To x i city of cathelicidins was calculated according to Invitrogen recommendations and expressed as percentage cell survival compared to the untreated growth control. A significant difference between cathelicidin treated and control cell survival was tested using a o ne sample t-test (p<0.05).
as §4
(§8) vacutainers (BD). […]

Test [1] relates to Vancomycin resistant E. faecalis (VREF). Type of test: cell-based, Enterococcus faecalis. The settings on record: broth microdilution (CLSI), 64 to 0.125 μg/mL, 24 h at 35 °C, human clinical isolate. The method, then: as §1, with “t-test. Pouch microbiome analysis was performed on swabs from the pouch of lactating and non-lactating devils to detect changes in microbe populations. Pouch swab collection was carried out in accordance with the Save the Tasmanian Devil Program and was approved by the Animal Ethics Committee of the University of Sydney (permit number 681).” for “t-test.”
as §5, §6, §7, §4, §8

The subject of the next test is C. krusei ATCC 6258. In kind it is cell-based, Candida krusei. The settings on record: broth microdilution (CLSI), YNB, 64 to 0.125 μg/mL, 48 hours at 35 °C; ATCC strain. The method, then:
as §1, §2, §3, §4

The test system of the next test is S. aureus. Type of test: cell-based, Staphylococcus aureus. The settings on record: broth microdilution (CLSI), 64 to 0.125 μg/mL, 24 h at 35 °C; human clinical isolate. The protocol:
as §1, with “t-test. Pouch microbiome analysis was performed on swabs from the pouch of lactating and non-lactating devils to detect changes in microbe populations. Pouch swab collection was carried out in accordance with the Save the Tasmanian Devil Program and was approved by the Animal Ethics Committee of the University of Sydney (permit number 681).” for “t-test.”
as §5
(§9) Two antibiotics, ampicillin and tetracycline, were included as a positive control for bacteria, and the antifungal drug fluconazole for fungi. A well containing cells and media only was used as a “no drug” control to ensure that cultures grew normally. […] Colonies were resuspended in saline and the OD530 measured with a McFarland reader. […] Assays Antimicrobial activity was expressed as minimum inhibitory concentration (MIC), which was defined as the lowest concentration of cathelicidin preventing visible growth, relative to the negative control. […]
as §3, §4

Test [2] deals with Methicillin resistant S. aureus (MRSA). Type of test: cell-based, Staphylococcus aureus. The conditions noted are these: broth microdilution (CLSI), 64 to 0.125 μg/mL, 24 h at 35 °C, human clinical isolate. The method, then: as §1, with “t-test. Pouch microbiome analysis was performed on swabs from the pouch of lactating and non-lactating devils to detect changes in microbe populations. Pouch swab collection was carried out in accordance with the Save the Tasmanian Devil Program and was approved by the Animal Ethics Committee of the University of Sydney (permit number 681).” for “t-test.”
as §5, §9, §3, §4

The next test has as its system E. coli ATCC 25922. Briefly: microbe, parasite or virus in culture. The settings on record: ATCC 25922, 24 h. In kind it is cell-based, Escherichia coli. The method, then: as §1, with “t-test. Pouch microbiome analysis was performed on swabs from the pouch of lactating and non-lactating devils to detect changes in microbe populations. Pouch swab collection was carried out in accordance with the Save the Tasmanian Devil Program and was approved by the Animal Ethics Committee of the University of Sydney (permit number 681).” for “t-test.”
as §5
Two antibiotics, ampicillin and tetracycline, were included as a positive control for bacteria, and the antifungal drug fluconazole for fungi. A well containing cells and media only was used as a “no drug” control to ensure that cultures grew normally. Bacteria were subcultured on Mueller Hinton agar (MHA) or Sheep blood agar (BA) for 24 hours at 35 °C for Staphylococcus spp., Pseudomonas spp., Enterococcus spp. and E.coli, with 5% CO2 for Streptococcus spp., K.pneumoniae, P.multocida, L.monocytogenes and N.asteroides. Similarly, fungi were subcultured on Sabouraud agar (SAB) at 35 °C for 24 hours prior to the test. Colonies were resuspended in saline and the OD530 measured with a McFarland reader. If necessary the suspension was diluted to 0.45-0.55 McFarland units with saline. […] Assays Antimicrobial activity was expressed as minimum inhibitory concentration (MIC), which was defined as the lowest concentration of cathelicidin preventing visible growth, relative to the negative control. […]
(§10) 570nm and 620nm using the Victor 3 multilabel plate reader (PerkinElmer). […] To x i city of cathelicidins was calculated according to Invitrogen recommendations and expressed as percentage cell survival compared to the untreated growth control. […]
(§11) Haemolytic activity was assessed using 10mL of human blood collected into potassium -ED T A vacutainers (BD). […]

The subject of a further test is L. monocytogenes*. Type of test: cell-based, Listeria monocytogenes. The conditions noted are these: broth microdilution (CLSI), 64 to 0.125 μg/mL, 24 h at 35 °C with 5% CO2; animal isolate. The protocol: as §1, with “t-test. Pouch microbiome analysis was performed on swabs from the pouch of lactating and non-lactating devils to detect changes in microbe populations.” for “t-test.”
as §2, §10, §11

For the next test, the system named is K. pneumoniae*. Type of test: cell-based, Klebsiella pneumoniae. The settings on record: broth microdilution (CLSI), 64 to 0.125 μg/mL, 24 h at 35 °C with 5% CO2; animal isolate. The protocol: as §1, §2, §3, §4
The test system of another test is S. pneumoniae ATCC 49619. Briefly: microbe, parasite or virus in culture. The conditions noted are these: ATCC 49619, 24 h. Type of test: cell-based. The method, then:
as §1, with “t-test. Pouch microbiome analysis was performed on swabs from the pouch of lactating and non-lactating devils to detect changes in microbe populations. Pouch swab collection was carried out in accordance with the Save the Tasmanian Devil Program and was approved by the Animal Ethics Committee of the University of Sydney (permit number 681).” for “t-test.”
as §5, §6
(§12) DMEM and positive control of dimethylsulfoxide (DMSO) (1%) were also included. […]
(§13) 570nm and 620nm using the Victor 3 multilabel plate reader (PerkinElmer). The assay was performed on two separate occasions. To x i city of cathelicidins was calculated according to Invitrogen recommendations and expressed as percentage cell survival compared to the untreated growth control. A significant difference between cathelicidin treated and control cell survival was tested using a o ne sample t-test (p<0.05).
(§14) Haemolytic activity was assessed using 10mL of human blood collected into potassium -ED T A vacutainers (BD). The blood was washed three times with 30mL of calcium and magnesium -free Dulbecco’s phosphate buffered saline (DPBS) and cells were collected by centrifugation at 2000 x g […]
(§15) for 10 minutes. […]

Test [3] has as its system C. parapsilosis ATCC 22019. Briefly: microbe, parasite or virus in culture. Type of test: cell-based. The conditions noted are these: broth microdilution (CLSI), YNB, 64 to 0.125 μg/mL, 48 hours at 35 °C; ATCC strain. The method, then:
as §1, with “t-test. Pouch microbiome analysis was performed on swabs from the pouch of lactating and non-lactating devils to detect changes in microbe populations. Pouch swab collection was carried out in accordance with the Save the Tasmanian Devil Program and was approved by the Animal Ethics Committee of the University of Sydney (permit number 681).” for “t-test.”
as §5, §6, §12, §13, §14, §15

Consider KRIGLIRLIGKILRGLRRLG [Saha-CATH5], for which the MIC against E. coli is 32 µg/mL; against P. multocida* it was above 64 µg/mL; in the test on E. faecalis, above 64 µg/mL; in test [1], 32 µg/mL; against C. krusei ATCC 6258 it was 64 µg/mL; in the test on S. aureus, 64 µg/mL. Further, the MIC in test [2] was 32 µg/mL; against E. coli ATCC 25922, 32 µg/mL; against L. monocytogenes*, above 64 µg/mL; in the test with K. pneumoniae*, above 64 µg/mL; in the test on S. pneumoniae ATCC 49619, 64 µg/mL; in test [3], above 64 µg/mL.

With “KRIRFFERIRDRLRDLGNRIKNRIRDFFS [Saha-CATH6]”, the MIC is above 64 µg/mL against E. coli; above 64 µg/mL in the test on P. multocida*; above 64 µg/mL with E. faecalis; 64 µg/mL in test [1]; 64 µg/mL in the test on C. krusei ATCC 6258; above 64 µg/mL in the test with S. aureus. Moreover, the MIC in the test with E. coli ATCC 25922 is above 64 µg/mL; with L. monocytogenes*, above 64 µg/mL; against K. pneumoniae* it was above 64 µg/mL; with S. pneumoniae ATCC 49619 it was 64 µg/mL; in test [3] it was above 64 µg/mL.

Turning to “KRMGIFHLFWAGLRKLGNLIKNKIQQGIENFLG [Saha-CATH3]”, the MIC (against E. coli; against P. multocida*; against E. faecalis; in test [1]; against C. krusei ATCC 6258; in the test with S. aureus) was above 64 µg/mL each time. The MIC (against E. coli ATCC 25922; in the test with L. monocytogenes*; in the test with K. pneumoniae*; against S. pneumoniae ATCC 49619; in [3]) was above 64 µg/mL throughout.
